One block for each compound: values may come before it.
Tested on: 931267-113-T-J1-PDC multicell spheroid viability
Experiment: Anticancer human tumor 931267-113-T-J1-PDC patient-derived colon adenocarcinoma cell line growth inhibition [PI3K]
Settings: for IC50: curve of first compound; for viability, T/C: stronger effect = lower value
In short: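 Stroma-containing spheroids: tumor line, pooled-donor HUVEC, hMSC. Treatments: targeted agents with PI3K inhibitors. Dosing: clinically relevant, half-log spacing, 10 microM ceiling without known Cmax. Read-out: cell viability.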

[1] = second compound 0.00316 µM, first compound 0.0316 µM
[2] = second compound 0.00316 µM, first compound 0.1 µM
[3] = second compound 0.00316 µM, first compound 0.316 µM
[4] = second compound 0.00316 µM, first compound 1 µM
[5] = second compound 0.00316 µM, first compound 3.16 µM
[6] = second compound 0.00316 µM, first compound 10 µM
[7] = second compound 0.01 µM, first compound 0.0316 µM
[8] = second compound 0.01 µM, first compound 0.1 µM
[9] = second compound 0.01 µM, first compound 0.316 µM
[10] = second compound 0.01 µM, first compound 1 µM
[11] = second compound 0.01 µM, first compound 3.16 µM
[12] = second compound 0.01 µM, first compound 10 µM
[13] = second compound 0.0316 µM, first compound 0.0316 µM
[14] = second compound 0.0316 µM, first compound 0.1 µM
[15] = second compound 0.0316 µM, first compound 0.316 µM
[16] = second compound 0.0316 µM, first compound 1 µM
[17] = second compound 0.0316 µM, first compound 3.16 µM
[18] = second compound 0.0316 µM, first compound 10 µM
[19] = second compound 0.1 µM, first compound 0.0316 µM
[20] = second compound 0.1 µM, first compound 0.1 µM
[21] = second compound 0.1 µM, first compound 0.316 µM
[22] = second compound 0.1 µM, first compound 1 µM
[23] = second compound 0.1 µM, first compound 3.16 µM
[24] = second compound 0.1 µM, first compound 10 µM
[25] = second compound 0.316 µM, first compound 0.0316 µM
[26] = second compound 0.316 µM, first compound 0.1 µM
[27] = second compound 0.316 µM, first compound 0.316 µM
[28] = second compound 0.316 µM, first compound 1 µM
[29] = second compound 0.316 µM, first compound 3.16 µM
[30] = second compound 0.316 µM, first compound 10 µM
[31] = second compound 1 µM, first compound 0.0316 µM
[32] = second compound 1 µM, first compound 0.1 µM
[33] = second compound 1 µM, first compound 0.316 µM
[34] = second compound 1 µM, first compound 1 µM
[35] = second compound 1 µM, first compound 3.16 µM
[36] = second compound 1 µM, first compound 10 µM
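Note: viability read 7 days after compound addition.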

- IC50 (second compound 0.00316 µM): > 10 µM
- IC50 (second compound 0.01 µM): > 10 µM
- IC50 (second compound 0.0316 µM): > 10 µM
- IC50 (second compound 0.1 µM): > 10 µM
- IC50 (second compound 0.316 µM): < 0.0316 µM
- IC50 (second compound 1 µM): < 0.0316 µM
SMILES: CC(C)NCC(C(=O)N1CCN(c2ncnc3c2C(C)CC3O)CC1)c1ccc(Cl)cc1 (stereo unspecified) + COc1c(OCCCN2CCOCC2)ccc2c3n(c(=NC(=O)c4cnc(N)nc4)nc12)CCN3
- viability, T/C [1]: 94.2%
- viability, T/C [2]: 96.2%
- viability, T/C [3]: 94.3%
- viability, T/C [4]: 94.7%
- viability, T/C [5]: 95%
- viability, T/C [6]: 71.1%
- viability, T/C [7]: 96.3%
- viability, T/C [8]: 93.7%
- viability, T/C [9]: 93.2%
- viability, T/C [10]: 91.2%
- viability, T/C [11]: 97.8%
- viability, T/C [12]: 71.4%
- viability, T/C [13]: 84.9%
- viability, T/C [14]: 84.9%
- viability, T/C [15]: 81.8%
- viability, T/C [16]: 81.6%
- viability, T/C [17]: 83.3%
- viability, T/C [18]: 65.8%
- viability, T/C [19]: 67.8%
- viability, T/C [20]: 71.1%
- viability, T/C [21]: 71.6%
- viability, T/C [22]: 69.7%
- viability, T/C [23]: 67.5%
- viability, T/C [24]: 55.7%
- viability, T/C [25]: 43.6%
- viability, T/C [26]: 44.8%
- viability, T/C [27]: 44%
- viability, T/C [28]: 47.7%
- viability, T/C [29]: 49.2%
- viability, T/C [30]: 44.1%
- viability, T/C [31]: 32.9%
- viability, T/C [32]: 30.8%
- viability, T/C [33]: 35.8%
- viability, T/C [34]: 31%
- viability, T/C [35]: 42%
- viability, T/C [36]: 33.3%

- IC50 (second compound 0.00316 µM): > 1 µM
- IC50 (second compound 0.01 µM): > 1 µM
- IC50 (second compound 0.0316 µM): > 1 µM
- IC50 (second compound 0.1 µM): 0.0888 µM
- IC50 (second compound 0.316 µM): < 0.00316 µM
- IC50 (second compound 1 µM): < 0.00316 µM
SMILES: CCN1CCN(Cc2ccc(Nc3ncc(F)c(-c4cc(F)c5nc(C)n(C(C)C)c5c4)n3)nc2)CC1 + COc1c(OCCCN2CCOCC2)ccc2c3n(c(=NC(=O)c4cnc(N)nc4)nc12)CCN3
- viability, T/C (second compound 0.00316 µM, first compound 0.00316 µM): 91.3%
- viability, T/C (second compound 0.00316 µM, first compound 0.01 µM): 105%
- viability, T/C [1]: 97.3%
- viability, T/C [2]: 98.7%
- viability, T/C [3]: 94.2%
- viability, T/C [4]: 81.7%
- viability, T/C (second compound 0.01 µM, first compound 0.00316 µM): 103%
- viability, T/C (second compound 0.01 µM, first compound 0.01 µM): 89.4%
- viability, T/C [7]: 87.6%
- viability, T/C [8]: 90.2%
- viability, T/C [9]: 89%
- viability, T/C [10]: 67%
- viability, T/C (second compound 0.0316 µM, first compound 0.00316 µM): 84.3%
- viability, T/C (second compound 0.0316 µM, first compound 0.01 µM): 79.1%
- viability, T/C [13]: 76.8%
- viability, T/C [14]: 70.8%
- viability, T/C [15]: 67.2%
- viability, T/C [16]: 55.5%
- viability, T/C (second compound 0.1 µM, first compound 0.00316 µM): 66.3%
- viability, T/C (second compound 0.1 µM, first compound 0.01 µM): 65.6%
- viability, T/C [19]: 57.2%
- viability, T/C [20]: 47.5%
- viability, T/C [21]: 49.2%
- viability, T/C [22]: 50.8%
- viability, T/C (second compound 0.316 µM, first compound 0.00316 µM): 53.5%
- viability, T/C (second compound 0.316 µM, first compound 0.01 µM): 44.7%
- viability, T/C [25]: 39.6%
- viability, T/C [26]: 37.3%
- viability, T/C [27]: 41.6%
- viability, T/C [28]: 45%
- viability, T/C (second compound 1 µM, first compound 0.00316 µM): 33.6%
- viability, T/C (second compound 1 µM, first compound 0.01 µM): 35.6%
- viability, T/C [31]: 25.3%
- viability, T/C [32]: 32.3%
- viability, T/C [33]: 35.9%
- viability, T/C [34]: 36.7%

- IC50 (second compound 0.00316 µM): 5.92 µM
- IC50 (second compound 0.01 µM): 5.8 µM
- IC50 (second compound 0.0316 µM): 4.9 µM
- IC50 (second compound 0.1 µM): 3.61 µM
- IC50 (second compound 0.316 µM): < 0.0316 µM
- IC50 (second compound 1 µM): < 0.0316 µM
SMILES: Cn1ncc(Cl)c1-c1cc(C(=O)NC(CN)Cc2cccc(F)c2)sc1Cl (stereo unspecified) + COc1c(OCCCN2CCOCC2)ccc2c3n(c(=NC(=O)c4cnc(N)nc4)nc12)CCN3
- viability, T/C [1]: 95.1%
- viability, T/C [2]: 102%
- viability, T/C [3]: 89.5%
- viability, T/C [4]: 81.8%
- viability, T/C [5]: 75.9%
- viability, T/C [6]: 30.8%
- viability, T/C [7]: 109%
- viability, T/C [8]: 95.4%
- viability, T/C [9]: 87.4%
- viability, T/C [10]: 76%
- viability, T/C [11]: 69.6%
- viability, T/C [12]: 35.6%
- viability, T/C [13]: 90%
- viability, T/C [14]: 93.2%
- viability, T/C [15]: 82.4%
- viability, T/C [16]: 75.3%
- viability, T/C [17]: 60.2%
- viability, T/C [18]: 34%
- viability, T/C [19]: 71.1%
- viability, T/C [20]: 70.3%
- viability, T/C [21]: 70.1%
- viability, T/C [22]: 60%
- viability, T/C [23]: 54.3%
- viability, T/C [24]: 32.2%
- viability, T/C [25]: 47.9%
- viability, T/C [26]: 50.4%
- viability, T/C [27]: 45.2%
- viability, T/C [28]: 47.3%
- viability, T/C [29]: 47.5%
- viability, T/C [30]: 22.1%
- viability, T/C [31]: 34.7%
- viability, T/C [32]: 35.6%
- viability, T/C [33]: 35.5%
- viability, T/C [34]: 33.9%
- viability, T/C [35]: 34.8%
- viability, T/C [36]: 20%

Source: PubChem BioAssay AID1963970 (Molecular Pharmacology Branch, DTP, NCI, 2024)
